Patent US20240140962A1, “5,6-DIHYDROTHIENO[3,4-H]QUINAZOLINE COMPOUND” (MEDSHINE DISCOVERY INC., priority 2021, published 2024)
Like-named read-outs stand apart in the source and are kept apart here. Each block holds one compound with its values, some of them ahead of it.

How the values were obtained:
[1] = molecular target: human PLK1 protein kinase (Homo sapiens (Human), UniProt P53350); experiment: PLK1 kinase activity in vitro, 33P isotope-labeled kinase activity assay; assay type: biochemical; conditions: 33P-ATP 30 μM, substrate Casein, PLK1 12 nM
Method: The ^33P isotope-labeled kinase activity assay (Reaction Biology Corp) was used to determine the IC50 value to evaluate the inhibitory ability of the test compound to human PLK1 protein kinase.
Buffer conditions: 20 mM HEPES (pH 7.5), 10 mM MgCl2, 1 mM EGTA, 0.01% Brij35, 0.02 mg/ml BSA, 0.1 mM Na3VO4, 2 mM DTT, 1% DMSO
Test steps: At room temperature, the compounds to be tested were dissolved in DMSO to prepare a 10 mM solution for use. The substrate Casein was dissolved in a freshly prepared buffer (with a final concentration of 20 μM), and the tested PLK1 kinase (with a final concentration of 12 nM) was added thereto and mixed well. The acoustic wave pipetting system Echo 550 was used to add the mother solution of the test compound dissolved in DMSO to the above mixed reaction mixture according to the set final concentration gradient (the highest final concentration was 1 μM, 3-fold dilution, 10 gradients). After incubation at room temperature for 20 minutes, ^33P-ATP (30 μM) was added, and after incubation at room temperature for 120 minutes, the reaction mixture was spotted on P81 ion exchange filter paper (Whatman #3698-915).

HCT116 cells = experiment: HCT116 cytological activity in vitro (3D CellTiter-Glo proliferation); assay type: cell-based, human; conditions: 5 days culture, ultra-low adsorption plates
Method: McCoy's 5A medium, penicillin/streptomycin antibiotics was purchased from Vicente, and fetal bovine serum was purchased from Biosera. 3D CellTiter-Glo (cell viability chemiluminescence assay reagent) reagent was purchased from Promega. HCT116 cell line was purchased from Nanjing Cobioer Biosciences Co., Ltd. Envision multimode microplate reader (PerkinElmer).
HCT116 cells were seeded in ultra-low adsorption 96-well U-plates, 80 μL of cell suspension per well, which contained 1000 HCT116 cells. Cell plates were cultured overnight in a carbon dioxide incubator.
The compound to be tested was 5-fold diluted to the 9th concentration with a pipette, that is, diluted from 2 mM to 5.12 nM, and a double-well experiment was set up. 78 μL of medium was added to the intermediate plate, and then 2 μL of each well of the gradient diluted compound was transferred to the intermediate plate according to the corresponding position, 20 μL of each well was transferred to the cell plate after mixing well. Compound concentrations transferred to cell plates ranged from 10 μM to 0.0256 nM. Cell plates were cultured in a carbon dioxide incubator for 5 days. Another cell plate was prepared, and the signal value was read as the maximum value (Max value in the following equation) on the day of drug addition to participate in data analysis.
Every 100 μL of cell viability chemiluminescent detection reagent was added to the cell plate, and incubated at room temperature for 10 minutes to stabilize the luminescent signal. A multimode microplate reader was used to read.
The equation (Sample−Min)/(Max−Min)*100% was used to convert the original data into an inhibition rate, and the value of IC50 can be obtained by curve fitting with four parameters (“log(inhibitor) vs. response in GraphPad Prism—Variable slope” mode). Table 3 provides the inhibitory activity of the compounds of the present disclosure against the proliferation of HCT116 cells.

[2] = test system: KRAS-mutant mCRC patients; conditions: cited from earlier work
[3] = test system: human colon cancer HCT116 cells subcutaneous xenograft tumor; experiment: In vivo pharmacodynamic study, subcutaneous xenograft tumor model of human colon cancer HCT116 cells; set-up: species or system BALB/c Nude mouse; conditions: 60 mg/kg PO QD (5 days on, 2 days off), tumor volume on day 22 after dosing
Method: In this experiment, human colon cancer HCT116 cells were subcutaneously transplanted into BALB/c Nude mouse model to evaluate the antitumor effect of the test compound in vivo.
HCT116 cell culture: 10% fetal calf serum was added to McCoy's 5A medium and cultured in 37° C. 5% CO2 cell incubator. When the cell saturation reached 80% to 90% and the number reached the requirement, cells were collected, counted and inoculated subcutaneously into BALB/c Nude mice (female, 6 to 7 weeks old)
When the tumors grew to a certain size, the animals with tumor volumes that were too large, too small, or with irregular tumor shapes were eliminated, and animals with tumor volumes ranging from 103.12 to 174.35 mm^3 were selected. According to the tumor volume, the animals were divided into 6 groups by random block method, and each group was composed of 6 mice wherein the average volume of the tumor was about 147.12 mm^3 , and the experimental grouping and dosing regimen were shown in Table 5 below. The health status and death of the animals were monitored every day. Routine inspections included observation of tumor growth and the effects of drug treatment on the daily behavior of the animals, such as behavioral activities, food and water intake, body weight changes (measured twice a week), tumor size (tumor volume was measured twice a week), appearance signs or other abnormal conditions.
The formula for calculating tumor volume (TV) was: ½×a×b^2, where a and b were the measured length and width of the tumor, respectively. The formula for calculating the tumor inhibition rate TGI (%) was: TGI (%)=[1−(average tumor volume at the end of administration of a certain treatment group−average tumor volume at the beginning of administration of this treatment group)/(average tumor volume at the end of treatment of the solvent control group−average tumor volume at the beginning of treatment in solvent control group)]×100%.
In this study, the experimental data were expressed as Mean±SEM. Statistical analysis was based on the data of RTV at the end of the experiment using IBM SPSS Statistics software. The comparison between two groups was analyzed by T test, and the comparison between three or more groups was analyzed by one-way ANOVA. If the variances were homogeneous (the F value had no significant difference), the Tukey's method was used for analysis. If the variances were not homogeneous (the F value had significant differences), and the Games-Howell method was used for testing. p<0.05 was considered as a significant difference.

[4] = Pharmacokinetic study in CD-1 male mice by oral administration and intravenous injection; assay type: in vivo; conditions: for Vd: read-out: Apparent volume of distribution Vdss; for AUC(0-t): read-out: Area under the plasma concentration-time curve AUC0-24 h; for clearance: read-out: Clearance CL; for half-life: read-out: Half-life T½ (converted); for Cmax: read-out: Peak concentration Cmax; for Tmax: read-out: Peak time Tmax; for bioavailability: read-out: Bioavailability F
Description: The purpose of this experiment is to study the pharmacokinetics of the test compound in the plasma of CD-1 male mice after intravenous injection and oral administration.
Intravenous injection group: an appropriate amount of the test compound was weighed and dissolved in 20% SBE-b-CD aqueous solution and the pH was adjusted to 4 to 5 with 6 M hydrochloric acid, and the mixture was vortexed for 2, minutes to obtain a clear solution, and then pH was adjusted around 7 with 5 N sodium hydroxide, and the mixture was vortexed for 1 minute to prepare a 1.5 mg/mL clear solution, which was filtered through a 0.22 μm microporous membrane for later use. CD-1 male mice from 6 to 10 weeks old were selected and given a solution of the test compound intravenously. Samples were collected at 0.083, 0.25, 0.5, 1, 2, 4, 6, 8, and 24 hours.
Oral administration group: an appropriate amount of the test compound was weighed and dissolved in 20% SBE-b-CD aqueous solution, and the pH was adjusted to 3 to 4 with 6 M hydrochloric acid, and the mixture was vortexed for 2, minutes to obtain a clear solution, and then pH was adjusted around 7 with 5 N sodium hydroxide, and mixture was vortexed for 1 minute to prepare a 2.0 mg/mL clear solution for later use. CD-1 male mice between 6 and 10 weeks of age were selected and given the test compounds orally. Samples were collected at 0.25, 0.5, 1, 2, 4, 6, 8, 10, and 24 hours.
Approximately 50 μL of whole blood was collected through the jugular vein at each time point for plasma preparation for concentration determination by high performance liquid chromatography-tandem mass spectrometry (LC-MS/MS). All animals were euthanized under CO2 anesthesia after collecting the PK samples at the last time point. The plasma concentration was processed using the non-compartmental model of WinNonlin™ Version 6.3 (Pharsight, Mountain View, CA) pharmacokinetic software, and the pharmacokinetic parameters were calculated using the linear logarithmic trapezoidal method, and the experimental results are shown in Table 4.

Sequence of human PLK1 protein kinase (P53350 whole entry): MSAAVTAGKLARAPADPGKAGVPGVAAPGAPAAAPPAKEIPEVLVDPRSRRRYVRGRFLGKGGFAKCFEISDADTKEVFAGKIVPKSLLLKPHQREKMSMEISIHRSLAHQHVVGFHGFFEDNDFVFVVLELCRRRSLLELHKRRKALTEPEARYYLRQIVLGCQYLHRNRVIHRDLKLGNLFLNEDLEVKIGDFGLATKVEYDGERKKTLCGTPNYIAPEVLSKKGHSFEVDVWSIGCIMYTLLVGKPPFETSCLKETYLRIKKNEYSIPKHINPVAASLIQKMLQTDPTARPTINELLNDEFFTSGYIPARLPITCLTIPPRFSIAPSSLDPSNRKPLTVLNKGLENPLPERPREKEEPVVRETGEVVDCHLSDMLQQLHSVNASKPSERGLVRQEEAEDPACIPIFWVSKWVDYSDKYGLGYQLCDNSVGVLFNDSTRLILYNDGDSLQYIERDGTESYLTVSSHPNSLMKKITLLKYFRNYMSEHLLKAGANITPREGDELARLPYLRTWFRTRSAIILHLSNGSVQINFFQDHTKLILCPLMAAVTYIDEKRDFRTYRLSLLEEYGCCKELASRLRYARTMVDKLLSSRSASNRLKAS

SMILES: CN1CCN(c2ccc(OC(F)(F)F)c(Nc3ncc4c(n3)-c3c(SCCO)sc(C(N)=O)c3CC4)c2)CC1 [Compound 3]
IC50 [1]: 5 nM

SMILES: CSc1sc(C(N)=O)c2c1-c1nc(Nc3cc(N4CC5CC(C4)N5C)ccc3OC(F)(F)F)ncc1CC2 [Compound 15]
IC50 [1]: 6.4 nM

SMILES: CN1CCN(c2ccc(OC(F)(F)F)c(Nc3ncc4c(n3)-c3c(c(C(N)=O)nn3CCO)CC4)c2)CC1 [Onvansertib]
safety profile in clinical studies ([2]; clinical studies): acceptable safety profile
clinical benefit ([2]; share of KRAS-mutant mCRC patients, early clinical research): 88%

SMILES: CN1CCN(c2ccc(OC(F)(F)F)c(Nc3ncc4c(n3)-c3c(C#N)sc(C(N)=O)c3CC4)c2)CC1 [Compound 13]
IC50 [1]: 4.9 nM

SMILES: CSc1sc(C(N)=O)c2c1-c1nc(Nc3cc(N4CCN(C)CC4)ccc3OC(F)F)ncc1CC2 [Compound 4]
IC50 (HCT116 cells): 35 nM
IC50 [1]: 1 nM

SMILES: CN1CCN(c2ccc(OC(F)(F)F)c(Nc3ncc4c(n3)-c3c(CCO)sc(C(N)=O)c3CC4)c2)CC1 [Compound 6]
IC50 [1]: 6.9 nM

SMILES: CN1CCN(c2ccc(OC(F)(F)F)c(Nc3ncc4c(n3)-c3c(OC5CC5)sc(C(N)=O)c3CC4)c2)CC1 [Compound 18]
IC50 (HCT116 cells): 74.5 nM
Apparent volume of distribution Vdss ([4]; IV, 1.1 mg/kg, plasma): 2.38 L/kg
Area under the plasma concentration-time curve AUC0-24 h ([4]; IV, 1.1 mg/kg, plasma): 0.94 µM·h
Clearance CL ([4]; IV, 1.1 mg/kg, plasma): 31.4 mL/min/kg
Half-life T½ ([4]; IV, 1.1 mg/kg, plasma): 73.2 min
Bioavailability F ([4]; PO 3.4 mg/kg vs IV 1.1 mg/kg): 82.5%
Area under the plasma concentration-time curve AUC0-24 h ([4]; PO, 3.4 mg/kg, plasma): 2.129 µM·h
Peak time Tmax ([4]; PO, 3.4 mg/kg, plasma): 60 min
Cmax ([4]; PO, 3.4 mg/kg, plasma): 688 nM
IC50 [1]: 4.3 nM

More lines, main results first:

IC50 (HCT116 cells; Homo sapiens, HCT-116, 120 h): 18.3 nM
SMILES: COc1nnc(N2CCN(C)CC2)cc1Nc1ncc2c(n1)-c1c(SC)sc(C(N)=O)c1CC2 [Compound 17]

IC50 [1]: 2.6 nM
SMILES: CSc1sc(C(N)=O)c2c1-c1nc(Nc3cc(N4CCN(C)CC4)ncc3OC(F)(F)F)ncc1CC2 [Compound 5]

IC50 (HCT116 cells; Homo sapiens, HCT-116, 120 h): 72 nM
SMILES: CSc1sc(C(=O)NO)c2c1-c1nc(Nc3cc(N4CCN(C)CC4)ccc3OC(F)(F)F)ncc1CC2 [Compound 23]

IC50 (HCT116 cells; Homo sapiens, HCT-116, 120 h): 52 nM
Vd ([4]; mouse, IV, 0.5 mg/kg, plasma): 2.04 L/kg
AUC(0-t) ([4]; mouse, IV, 0.5 mg/kg, plasma): 0.374 µM·h
clearance ([4]; mouse, IV, 0.5 mg/kg, plasma): 37.4 mL/min/kg
half-life ([4]; mouse, IV, 0.5 mg/kg, plasma): 44.4 min
AUC(0-t) ([4]; mouse, PO, 2.2 mg/kg, plasma): 0.459 µM·h
Cmax ([4]; mouse, PO, 2.2 mg/kg, plasma): 157 nM
Tmax ([4]; mouse, PO, 2.2 mg/kg, plasma): 45 min
bioavailability ([4]; mouse, plasma, PO 2.2 mg/kg vs IV 0.5 mg/kg): 30.9%
SMILES: CSc1sc(C(N)=O)c2c1-c1nc(Nc3cc(N4CCN(CCO)CC4)ccc3OC(F)(F)F)ncc1CC2 [Compound 8]
TGI [3]: 85.4%

IC50 (HCT116 cells; Homo sapiens, HCT-116, 120 h): 30.8 nM
Vd ([4]; mouse, IV, 1.0 mg/kg, plasma): 2.89 L/kg
AUC(0-t) ([4]; mouse, IV, 1.0 mg/kg, plasma): 0.624 µM·h
clearance ([4]; mouse, IV, 1.0 mg/kg, plasma): 47.9 mL/min/kg
half-life ([4]; mouse, IV, 1.0 mg/kg, plasma): 69 min
AUC(0-t) ([4]; mouse, PO, 3.0 mg/kg, plasma): 1.02 µM·h
Cmax ([4]; mouse, PO, 3.0 mg/kg, plasma): 478 nM
Tmax ([4]; mouse, PO, 3.0 mg/kg, plasma): 45 min
bioavailability ([4]; mouse, plasma, PO 3.0 mg/kg vs IV 1.0 mg/kg): 54.2%
SMILES: CCOc1sc(C(N)=O)c2c1-c1nc(Nc3cc(N4CCN(C)CC4)ccc3OC(F)(F)F)ncc1CC2 [Compound 2]
TGI [3]: 72.5%

IC50 (HCT116 cells; Homo sapiens, HCT-116, 120 h): 58.6 nM
SMILES: CN1CCN(c2ccc(OC(F)(F)F)c(Nc3ncc4c(n3)-c3c(-c5ccco5)sc(C(N)=O)c3CC4)c2)CC1 [Compound 20]

IC50 (HCT116 cells; Homo sapiens, HCT-116, 120 h): 29.2 nM
SMILES: CN1CCN(c2ccc(OC(F)(F)F)c(Nc3ncc4c(n3)-c3c(C5CC5)sc(C(N)=O)c3CC4)c2)CC1 [Compound 16]
